Laboratory results as given in ChEMBL document CHEMBL4616599, “Molecular mechanism of C-phycocyanin induced apoptosis in LNCaP cells” (Bioorg Med Chem, 2020).
Activity calls are given as the source filed them.

Tests used:
Type in all cases: functional, cell-based
LNCaP [1] = test: Induction of apoptosis in human LNCAP cells assessed as increase in cleaved PARP expression at 10 uM measured after 24 hrs by Western blot analysis
LNCaP [2] = test: Induction of apoptosis in human LNCAP cells assessed as increase in cleaved PARP expression at 500 ug/ml measured after 24 hrs by western blot analysis
LNCaP [3] = test: Induction of apoptosis in human LNCAP cells assessed as up regulation of p21 expression at 10 uM measured after 24 hrs by immunoblot analysis
LNCaP [4] = test: Induction of apoptosis in human LNCAP cells assessed as up regulation of p53 expression at 10 uM measured after 24 hrs by immunoblot analysis
LNCaP [5] = test: Cytotoxicity against human LNCAP cells assessed as reduction in cell viability at 10 uM after 24 hrs by trypan blue dye exclusion assay
LNCaP [6] = test: Induction of apoptosis in human LNCAP cells assessed as decrease in uncleaved PARP expression at 10 uM measured after 24 hrs by Western blot analysis

Measured: Activity

CC[C@@]1(O)C(=O)OCc2c1cc1n(c2=O)Cc2cc3c(CN(C)C)c(O)ccc3nc2-1
active: LNCaP [1] | LNCaP [2] | LNCaP [3] | LNCaP [4] | LNCaP [5] | LNCaP [6]
